As usually defined, the IC50 is the concentration that gives 50% inhibition.

The structures appear in SMILES notation.

One assay addresses SARS-CoV-2 Papain-Like Protease (PLpro) (Severe acute respiratory syndrome coronavirus 2 (2019-nCoV) (SARS-CoV-2), UniProt P0DTD1). The assay is described as follows: biochemical. The settings on record: PLpro enzymatic fluorescence assay; class symbols; read-out: PLpro IC50.
Consider `COc1cc(C2(NC(=O)c3cc(OCCNC(C)(C)C)ccc3C)CC2)c2cccnc2c1` [Compound 626, 5-(2-(tert-Butylamino)ethoxy)-N-(1-(7-methoxyquinolin-5-yl)cyclopropyl)-2-methylbenzamide], for which the half-inhibitory concentration (IC50) was less than 100 nM. For the molecule `CNCCOc1ccc(C)c(C(=O)NC2(c3cc(-c4cccs4)cc4ncccc34)CC2)c1` [Compound 630, 2-Methyl-5-(2-(methylamino)ethoxy)-N-(1-(7-(thiophen-2-yl)quinolin-5-yl)cyclopropyl)benzamide], the IC50 was less than 100 nM. Still for that read-out and setting: in the case of `Cc1ccc(OC[C@@H]2CCN2C)cc1C(=O)NC1(c2cc(-c3cc(Cl)cs3)cc3ncccc23)CC1` [Compound 632, (S)-N-(1-(7-(4-Chlorothiophen-2-yl)quinolin-5-yl)cyclopropyl)-2-methyl-5-((1-methylazetidin-2-yl)methoxy)benzamide] it was less than 100 nM. As to `Cc1ccc(OC[C@@H]2CCN2C)cc1C(=O)NC1(c2cc(-c3cc[nH]n3)cc3ncccc23)CC1` [Compound 633, (S)-N-(1-(7-(1H-Pyrazol-3-yl)quinolin-5-yl)cyclopropyl)-2-methyl-5-((1-methylazetidin-2-yl)methoxy)benzamide], the IC50 was less than 100 nM.

As to `Cc1ccc(OC[C@@H]2CCN2)cc1C(=O)NC1(c2cc(-c3ccn(C)n3)cc3ncccc23)CC1` [Compound 634, (S)-5-(Azetidin-2-ylmethoxy)-2-methyl-N-(1-(7-(1-methyl-1H-pyrazol-3-yl)quinolin-5-yl)cyclopropyl)benzamide], the IC50 is less than 100 nM. As for `Cc1cc(-c2cc(C3(NC(=O)c4cc(OC[C@@H]5CCN5)ccc4C)CC3)c3cccnc3c2)n[nH]1` [Compound 635, (S)-5-(Azetidin-2-ylmethoxy)-2-methyl-N-(1-(7-(5-methyl-1H-pyrazol-3-yl)quinolin-5-yl)cyclopropyl)benzamide], the IC50 was less than 100 nM. Consider `Cc1ccc(OC[C@@H]2CCN2)cc1C(=O)NC1(c2cc(-c3cc[nH]n3)cc3ncccc23)CC1` [Compound 636, (S)-N-(1-(7-(1H-Pyrazol-3-yl)quinolin-5-yl)cyclopropyl)-5-(azetidin-2-ylmethoxy)-2-methylbenzamide], for which the IC50 was less than 100 nM.

For the molecule `Cc1ccc(OC[C@@H]2CCN2)cc1C(=O)NC1(c2cc(-c3cccnc3)cc3ncccc23)CC1` [Compound 637, (S)-5-(Azetidin-2-ylmethoxy)-2-methyl-N-(1-(7-(pyridin-3-yl)quinolin-5-yl)cyclopropyl)benzamide], the IC50 is less than 100 nM. In the case of `CC(=O)c1cc(C2(NC(=O)c3cc(OC[C@@H]4CCN4C)ccc3C)CC2)c2cccnc2c1` [Compound 638, (S)-N-(1-(7-Acetylquinolin-5-yl)cyclopropyl)-2-methyl-5-((1-methylazetidin-2-yl)methoxy)benzamide], the IC50 is less than 100 nM. For the molecule `CNCCOc1ccc(C)c(C(=O)NC2(c3cc(-c4ccnn4C)cc4ncccc34)CC2)c1` [Compound 639, 2-Methyl-N-(1-(7-(1-methyl-1H-pyrazol-5-yl)quinolin-5-yl)cyclopropyl)-5-(2-(methylamino)ethoxy)benzamide], the IC50 is less than 100 nM. Consider `Cc1cc(-c2cc(C3(NC(=O)c4cc(OC[C@@H]5CCN5)ccc4C)CC3)c3cccnc3c2)cs1` [Compound 640, (S)-5-(Azetidin-2-ylmethoxy)-2-methyl-N-(1-(7-(5-methylthiophen-3-yl)quinolin-5-yl)cyclopropyl)benzamide], for which the IC50 is less than 100 nM. Still for that read-out and setting: to `Cc1cc(-c2cc(C3(NC(=O)c4cc(OC[C@@H]5CCN5)ccc4C)CC3)c3cccnc3c2)c(C)o1` [Compound 641, (S)-5-(Azetidin-2-ylmethoxy)-N-(1-(7-(2,5-dimethylfuran-3-yl)quinolin-5-yl)cyclopropyl)-2-methylbenzamide] belongs less than 100 nM; to `Cc1ccc(OC[C@@H]2CCN2)cc1C(=O)NC1(c2cc(-c3cn[nH]c3)cc3ncccc23)CC1` [Compound 642, (S)-N-(1-(7-(1H-Pyrazol-4-yl)quinolin-5-yl)cyclopropyl)-5-(azetidin-2-ylmethoxy)-2-methylbenzamide], less than 100 nM; to `CC(=O)c1ccc(-c2cc(C3(NC(=O)c4cc(OC[C@@H]5CCN5)ccc4C)CC3)c3cccnc3c2)s1` [Compound 643, (S)-N-(1-(7-(5-Acetylthiophen-2-yl)quinolin-5-yl)cyclopropyl)-5-(azetidin-2-ylmethoxy)-2-methylbenzamide], less than 100 nM. For `Cc1ccc(OC[C@@H]2CCN2C)cc1C(=O)NC1(c2cc(-c3ccn(C(F)F)n3)cc3ncccc23)CC1` [Compound 644, (S)-N-(1-(7-(1-(Difluoromethyl)-1H-pyrazol-3-yl)quinolin-5-yl)cyclopropyl)-2-methyl-5-((1-methylazetidin-2-yl)methoxy)benzamide], the IC50 is less than 100 nM. For `Cc1ccc(OC[C@@H]2CCN2)cc1C(=O)NC1(c2cc(-c3ccoc3)cc3ncccc23)CC1` [Compound 645, (S)-5-(Azetidin-2-ylmethoxy)-N-(1-(7-(furan-3-yl)quinolin-5-yl)cyclopropyl)-2-methylbenzamide], the IC50 is less than 100 nM. For the molecule `Cc1ccc(-c2cc(C3(NC(=O)c4cc(OC[C@@H]5CCN5)ccc4C)CC3)c3cccnc3c2)o1` [Compound 646, (S)-5-(Azetidin-2-ylmethoxy)-2-methyl-N-(1-(7-(5-methylfuran-2-yl)quinolin-5-yl)cyclopropyl)benzamide], the IC50 is less than 100 nM.

In the case of `CNCCOc1ccc(C)c(C(=O)NC2(c3cc(-c4ccn(C)n4)cc4ncccc34)CC2)c1` [Compound 647, 2-Methyl-N-(1-(7-(1-methyl-1H-pyrazol-3-yl)quinolin-5-yl)cyclopropyl)-5-(2-(methylamino)ethoxy)benzamide], the IC50 was less than 100 nM. Regarding `Cc1ccc(OC[C@@H]2CCN2C)cc1C(=O)NC1(c2cc(C3CCCC3)cc3ncccc23)CC1` [Compound 648, (S)-N-(1-(7-Cyclopentylquinolin-5-yl)cyclopropyl)-2-methyl-5-((1-methylazetidin-2-yl)methoxy)benzamide], the IC50 is less than 100 nM. For `Cc1ccc(OC[C@@H]2CCN2)cc1C(=O)NC1(c2cc(-c3ccnn3C)cc3ncccc23)CC1` [Compound 649, (S)-5-(Azetidin-2-ylmethoxy)-2-methyl-N-(1-(7-(1-methyl-1H-pyrazol-5-yl)quinolin-5-yl)cyclopropyl)benzamide], the IC50 is less than 100 nM. For the molecule `C=C(c1cc(C2(NC(=O)c3cc(OC[C@@H]4CCN4C)ccc3C)CC2)c2cccnc2c1)C(F)(F)F` [Compound 650, (S)-2-Methyl-5-((1-methylazetidin-2-yl)methoxy)-N-(1-(7-(3,3,3-trifluoroprop-1-en-2-yl)quinolin-5-yl)cyclopropyl)benzamide], the IC50 was less than 100 nM. Turning to `Cc1cc(-c2cc(C3(NC(=O)c4cc(OC[C@@H]5CCN5C)ccc4C)CC3)c3cccnc3c2)n[nH]1` [Compound 651, (S)-2-Methyl-N-(1-(7-(5-methyl-1H-pyrazol-3-yl)quinolin-5-yl)cyclopropyl)-5-((1-methylazetidin-2-yl)methoxy)benzamide], the IC50 is less than 100 nM.

Staying with this assay, now noted: SARS-CoV-2 PLpro enzymatic fluorescence assay; read-out: PLpro IC50.
As to `Cc1ccc(OC[C@@H]2CCN2C)cc1C(=O)NC1(c2cc(N(C)C)cc3ncccc23)CC1` [Compound 627, (S)-N-(1-(7-(Dimethylamino)quinolin-5-yl)cyclopropyl)-2-methyl-5-((1-methylazetidin-2-yl)methoxy)benzamide], the IC50 is less than 100 nM.

These data come from patent US20250025443A1, “COMPOUNDS AND METHODS FOR TREATING CORONA VIRUSES” (CLEAR CREEK BIO, INC., priority 2021, published 2025).
